In patent publication US10125112B2, “Modulators of the relaxin receptor 1” (The United States of America, as Represented by the …, priority 2012, dated 2018):
≈ marks a conversion by molar mass, not a printed value. Like-named read-outs stand apart in the source and are kept apart here.

Assays:
cAMP in THP-1 cells = assay: cyclic AMP assay in THP-1 cells; type: cell-based; settings: Homo sapiens
Procedure: This Example illustrates the cyclic AMP assay in THP-1 cells. THP-1 cells were propagated in RPMI-1640 supplemented with 20% FBS, 0.05 mM β-mercaptoethanol, 100 U/mL penicillin and 100 μg/mL streptomycin at 37° C. in 5% CO2. Before assaying for cAMP response, cells were serum starved in RPMI-1640 supplemented with 0.05 mM (3-mercaptoethanol, 100 U/mL penicillin and 100 μg/mL streptomycin at 37° C. in 5% CO2 for 16 hrs. For 384-well format assays, cells were seeded as 30,000 cells/well in 30 μL/well media with a MultiDrop Combi dispenser (Thermo Scientific, Waltham, Mass.). Subsequently, 2 μL/well of 1.6 mM Ro 20-1724 and 160 uM forskolin in PBS+ (DPBS, 1 mM CaCl2, 0.5 mM MgCl2, 0.05% BSA, 0.005% Tween 20) was dispensed using a BioRAPTR FRD dispenser (Beckman Coulter, Brea, Calif.). Immediately after, 0.25 μL/well of compound solutions in DMSO was dispensed with CyBi-well dispenser (CyBio, Jena, Germany). The cells were allowed to be stimulated with compounds for 30 min at 37° C. in 5% CO2, after which, 8 μL/well of each HTRF cAMP HiRange kit (CisBio, Bedford, Mass.) detection reagent was dispensed with a BioRAPTR FRD dispenser. The detection reagents were diluted as such: K-α-cAMP antibody at 1:20 and cAMP-d2 at 1:18 in HTRF lysis buffer (supplied by the assay kit). The plates were incubated for 30 min at room temperature before the signal was read on an Envision plate reader (PerkinElmer, Waltham, Mass.).

RXFP1 = biological target: T1, RXFP1 (Homo sapiens, UniProt Q9HBX9); assay: RXFP1 cAMP assay in HEK293-RXFP1 cells (HTRF); type: cell-based
T1 construct: expressed in transfected cells
T1 sequence (Q9HBX9 1-757): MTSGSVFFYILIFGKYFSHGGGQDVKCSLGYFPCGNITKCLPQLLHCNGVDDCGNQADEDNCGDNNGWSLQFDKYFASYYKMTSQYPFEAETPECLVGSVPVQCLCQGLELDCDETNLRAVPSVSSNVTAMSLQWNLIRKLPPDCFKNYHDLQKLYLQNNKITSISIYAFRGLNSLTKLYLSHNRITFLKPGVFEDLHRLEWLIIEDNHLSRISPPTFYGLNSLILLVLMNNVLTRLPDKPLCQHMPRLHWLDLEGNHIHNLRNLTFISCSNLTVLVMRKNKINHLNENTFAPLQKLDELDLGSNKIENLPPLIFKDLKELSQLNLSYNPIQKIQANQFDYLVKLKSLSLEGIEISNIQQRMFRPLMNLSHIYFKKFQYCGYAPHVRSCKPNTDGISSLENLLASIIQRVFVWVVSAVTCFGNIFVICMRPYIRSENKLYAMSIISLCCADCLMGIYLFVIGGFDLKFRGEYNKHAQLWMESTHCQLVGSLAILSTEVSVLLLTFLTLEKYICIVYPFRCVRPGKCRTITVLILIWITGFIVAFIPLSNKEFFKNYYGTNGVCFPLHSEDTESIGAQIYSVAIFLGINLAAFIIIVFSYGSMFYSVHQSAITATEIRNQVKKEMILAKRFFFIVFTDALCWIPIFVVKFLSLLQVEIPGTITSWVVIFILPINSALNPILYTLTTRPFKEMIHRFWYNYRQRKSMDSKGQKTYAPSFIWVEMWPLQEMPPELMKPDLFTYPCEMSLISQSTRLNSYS
Procedure: The RXFP1 receptor couples to the Gs protein, and activation of the receptor results in stimulation of cAMP production. […] The TR-FRET between the K-α-cAMP and cAMP-d2 is disrupted by cAMP in the cell lysates, thus allowing TR-FRET detection in a homogenous format that is suitable for HTS. […] The primary screen was carried out in 1536-well format, however, because of a more robust signal to background ratio, all subsequent follow-up experiments were carried out in 384-well format.
For the primary screen, HEK293-RXFP1 cells were seeded at 2,000 cells/well in 3 μL/well media with a MultiDrop Combi dispenser (Thermo Scientific, Logan, Utah), and allowed to attach overnight at 37° C., 5% CO2. […] The cells were allowed to be stimulated with the compounds for 30 minutes at 37° C., 5% CO2, after which, 1 μL/well of each HTRF detection reagent was dispensed with a BioRAPTR FRD dispenser. The detection reagents were diluted before addition as follows: K-α-cAMP antibody at 1:20 and cAMP-d2 at 1:18 in HTRF lysis buffer (supplied by the assay kit). The plates were incubated for 30 minute at room temperature, and then the signal was read on a ViewLux plate reader (PerkinElmer, Waltham, Mass.).
The assay was run according to the following protocol:
Max Response indicates what the maximal amount of functional activity induced by the compound is, as a percentage of the maximal receptor activation induced by high concentrations of forskolin.

[1] = test system: VEGF gene expression in THP1 cells; assay: VEGF gene expression in THP1 cells (qRT-PCR); type: cell-based, human; settings: 2 hours treatment, normalized to GAPDH
Description: This example illustrates the activation of VEGF expression in THP1 cells by several embodiments of the disclosure.
THP1 cells (human acute monocytic leukemia cell line) were used to analyze the stimulation of VEGF gene expression after treatment with relaxin or compounds. The VEGF stimulation in these cultured endometrial cells is a well-established property of relaxin.^19 This effect is most probably responsible for the observed angiogenic and neovascularization properties of relaxin in various settings.^20 400,000 THP1 cells (0.4 mL at 1×10^6 cells/mL) in test media (RPMI-1640 without phenol red, 0.5% FBS, Ix Pen/Strep, 0.05 mM of 2-mercaptoethanol) were seeded in each well on a 24-well plate. After 24 hours incubation at 37° C., 5% CO2, relaxin or compounds were added for 2 hours. […] Quantitative real time RT-PCR for VEGF and GAPDH gene expression was done using a Roche LightCycler 480 (Roche Diagnostics, Indianapolis, Ind.) with the appropriate set of primers and probes spanning different exons. The relative fold change in VEGF mRNA level was calculated by the comparative Ct (2-ΔΔ^Ct) method using GAPDH expression for normalization of RNA. […]

RXFP2 = biological target: T2, RXFP2 (Homo sapiens, UniProt Q8WXD0); assay: RXFP2 cAMP assay in HEK293-RXFP2 cells; type: cell-based
T2 construct: expressed in transfected cells
T2 sequence (Q8WXD0 whole entry, species assumed): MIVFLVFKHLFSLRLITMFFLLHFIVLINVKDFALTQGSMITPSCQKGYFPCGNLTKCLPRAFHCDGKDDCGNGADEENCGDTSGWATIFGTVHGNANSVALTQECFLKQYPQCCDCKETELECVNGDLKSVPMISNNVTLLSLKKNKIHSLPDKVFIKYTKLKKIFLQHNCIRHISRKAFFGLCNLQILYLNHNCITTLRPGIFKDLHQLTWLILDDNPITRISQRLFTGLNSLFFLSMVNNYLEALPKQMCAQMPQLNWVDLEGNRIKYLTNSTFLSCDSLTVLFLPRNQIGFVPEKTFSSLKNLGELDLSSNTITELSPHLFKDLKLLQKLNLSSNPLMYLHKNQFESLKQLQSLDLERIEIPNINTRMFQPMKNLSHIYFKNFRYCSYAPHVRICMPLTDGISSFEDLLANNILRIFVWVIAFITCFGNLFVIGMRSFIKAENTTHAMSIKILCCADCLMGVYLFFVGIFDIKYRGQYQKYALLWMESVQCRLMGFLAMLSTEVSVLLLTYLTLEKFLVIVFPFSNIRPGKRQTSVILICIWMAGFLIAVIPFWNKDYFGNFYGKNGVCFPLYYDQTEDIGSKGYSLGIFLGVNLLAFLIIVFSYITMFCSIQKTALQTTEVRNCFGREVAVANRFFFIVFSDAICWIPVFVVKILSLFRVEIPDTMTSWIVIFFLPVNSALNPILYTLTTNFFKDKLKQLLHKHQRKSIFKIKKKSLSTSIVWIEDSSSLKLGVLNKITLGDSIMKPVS
Procedure: HEK293 cells stably transfected with RXFP2, the cognate receptor for another relaxin family peptide, insulin-like 3, (HEK293-RXFP2) was used to test compound specificity towards the RXFP1 receptor. For this assay, cells were seeded at 8,000 cells/well in 30 µL/well of media with a MultiDrop Combi dispenser (Thermo Scientific), and allowed to attach overnight at 37° C., 5% CO2. Next, 2 µL/well of 1.6 mM Ro 20-1724 solution in PBS+(DPBS, 1 mM CaCl2, 0.5 mM MgCl2, 0.05% BSA, 0.005% Tween 20) were dispensed using a BioRAPTR FRD dispenser (Beckman Coulter, Brea, Calif.), followed addition of 0.25 μL/well of compound solution in DMSO with CyBi-well dispenser (CyBio, Jena, Germany). The cells were allowed to be stimulated with the compounds for 30 minutes at 37° C., 5% CO2, after which, 8 μL/well of each HTRF detection reagent (diluted according to assay kit directions in HTRF lysis buffer) was dispensed with a BioRAPTR FRD dispenser. The plates were incubated for 30 minute at 37° C., and then the signal was read on a ViewLux plate reader (PerkinElmer, Waltham, Mass.).

PBS solubility = type: physicochemical; settings: aqueous buffer
[2] = percentage of the maximal receptor activation induced by high concentrations of forskolin, Tables 1-7, read-out: Max Response
[3] = 0.5 h, THP-1 cells, cAMP HTRF, with Ro 20-1724 and forskolin, 30 min, read-out: EC50
[4] = read-out: RXFP1 AC50 (μM, Max. Resp.): Max. Resp.
[5] = HEK293-RXFP1 cells, cAMP HTRF, with Ro 20-1724, Tables 1-7, read-out: RXFP1 AC50

CCCCOc1ccccc1C(=O)Nc1ccccc1C(=O)Nc1cccc(S(=O)(=O)C(F)(F)F)c1 [Example 180, 2-Butoxy-N-(2-((3-((trifluoromethyl)sulfonyl)phenyl)carbamoyl)phenyl)benzamide]
EC50 (cAMP in THP-1 cells; THP-1, 0.5 h): 124 nM

O=C(Nc1ccccc1C(=O)Nc1cccc(C(F)(F)F)c1)c1ccccc1I [Example 86]
Emax (RXFP1; [2]): 80%

O=C(Nc1cccc(C(F)(F)F)c1)c1ccccc1NC(=O)c1ccccc1C(F)(F)F [Example 70]
Emax (RXFP1; [2]): 70%

O=C(NCc1ccco1)c1ccccc1NC(=O)c1ccccc1NC(=O)C1CCCCC1 [Example 44]
Emax (RXFP1; [2]): 45%

CC(=O)Nc1ccccc1C(=O)Nc1cccc(C(F)(F)F)c1 [Example 47]
Emax (RXFP1; read-out: Max Response): 51%

O=C(Nc1ccc(F)cc1)c1ccccc1NC(=O)C1CCCCC1 [Example 13]
Emax (RXFP1; [2]): 74%

CCOc1ccccc1C(=O)Nc1ccccc1C(=O)Nc1cccc(C(F)(F)F)c1 [Compound 99, 2-Ethoxy-N-(2-((3-(trifluoromethyl)phenyl)carbamoyl)phenyl)benzamide]
Relative VEGF gene expression (control = 1.0) [1]: 1.9
EC50 (cAMP in THP-1 cells; [3]): 471 nM

CCOc1ccccc1-c1nc2ccccc2c(=O)n1-c1cccc(-c2nnn[nH]2)c1 [Example 143]
Emax (RXFP1; [2]): 36%

CCOc1ccccc1C(=O)Nc1ccccc1C(=O)Nc1cccc(C(F)(F)F)c1 [Example 99]
AC50 (RXFP1; Table 10, read-out: RXFP1 AC50 (μM, Max. Resp.): AC50): 0.297 µM
Emax (RXFP1; [2]): 94%
Emax (RXFP1; [4]): 95%
Emax (RXFP2; 0.5 h, read-out: RXFP2 AC50 (μM, Max. Resp.): Max. Resp.): 47%
AC50 (RXFP2; HEK293-RXFP2 cells, inactive = Maximum response less than 30%, read-out: RXFP2 AC50 (μM, Max. Resp.): AC50): 9.4 µM
solubility (PBS solubility): 1.7 µM (≈ 0.728 µg/mL)

CCCOc1ccccc1C(=O)Nc1ccccc1C(=O)Nc1cccc(S(=O)(=O)C(F)(F)F)c1 [Example 179, 2-Propoxy-N-(2-((3-((trifluoromethyl)sulfonyl)phenyl)carbamoyl)phenyl)benzamide]
Relative VEGF gene expression (control = 1.0) [1]: 1.5
EC50 (cAMP in THP-1 cells; THP-1, 0.5 h): 105 nM

O=C(Nc1cccc(S(=O)(=O)C(F)(F)F)c1)c1ccccc1NC(=O)c1ccccc1OCC(F)(F)F [Example 177, 2-(2,2,2-Trifluoroethoxy)-N-(2-((3-((trifluoromethyl)sulfonyl)phenyl)carbamoyl)phenyl)benzamide]
EC50 (cAMP in THP-1 cells; THP-1, 0.5 h): 107 nM

COc1ccccc1C(=O)Nc1ccccc1C(=O)Nc1cccc(S(=O)(=O)C(F)(F)F)c1 [Compound 159, 2-Methoxy-N-(2-((3-((trifluoromethyl)sulfonyl)phenyl)carbamoyl)phenyl)benzamide]
EC50 (cAMP in THP-1 cells; [3]): 358 nM

CCSc1ccccc1C(=O)Nc1ccccc1C(=O)Nc1cccc(S(=O)(=O)C(F)(F)F)c1 [Example 176]
Emax (RXFP1; [2]): 95%

COc1ccccc1C(=O)Nc1ccccc1C(=O)Nc1cccc(S(=O)(=O)C(F)(F)F)c1 [Example 159]
Emax (RXFP1; read-out: Max Response): 99%
Emax (RXFP1; [4]): 99%

C/C=C\c1cccc(NC(=O)c2ccccc2NC(=O)c2ccccc2OCC)c1 [Example 169]
AC50 (RXFP1; [5]): 1.49 µM
Emax (RXFP1; [2]): 91%

COc1ccccc1C(=O)Nc1ccccc1C(=O)Nc1cccc(SC(F)(F)F)c1 [Compound 158]
EC50 (cAMP in THP-1 cells; [3]): 523 nM

CCOc1ccccc1C(=O)Nc1ccccc1C(=O)Nc1cncc(I)c1 [Example 165]
AC50 (RXFP1; [5]): 11.8 µM
Emax (RXFP1; [2]): 72%

CC(C)Oc1ccccc1C(=O)Nc1ccccc1C(=O)Nc1cccc(S(=O)(=O)C(F)(F)F)c1 [Example 178, 2-Isopropoxy-N-(2-(3-(trifluoromethylsulfonyl)phenylcarbamoyl)phenyl)benzamide]
EC50 (cAMP in THP-1 cells; [3]): 200 nM

O=C(Nc1cccc(S(=O)(=O)C(F)(F)F)c1)c1ccccc1NC(=O)c1ccccc1OCC(F)(F)F [Example 177]
Emax (RXFP1; read-out: Max Response): 97%
Emax (RXFP1; [4]): 97%

C#Cc1cccc(NC(=O)c2ccccc2NC(=O)C2CCCCC2)c1 [Example 21]
Emax (RXFP1; [2]): 85%

CCOc1ccccc1C(=O)Nc1ccccc1-c1nc2cc(C(F)(F)F)ccc2[nH]1 [Example 141]
Emax (RXFP1; [2]): 31%

CCCCOc1ccccc1C(=O)Nc1ccccc1C(=O)Nc1cccc(S(=O)(=O)C(F)(F)F)c1 [Example 180]
Emax (RXFP1; read-out: Max Response): 98%
Emax (RXFP1; [4]): 98%
